Experimental data as given in patent US7815900B1, “Use of C3-C5 monosaccharides to protect keratinous fibers” (L'Oréal S.A., priority 2000, dated 2010).

Legend:
[1] = DSC doublet peak area (α-structure) of hair after heat cycles
Description: (§1) Normal blonde hair was bleached with Clairol Basic White Bleach (40 volume H2O2) for 20 min at standard room temperature and humidity. The bleached swatches were rinsed with tap water, and soaked in an excess of deionized water for 2 hours. The swatches were air-dried and equilibrated for 48 hours prior to further treatment. Some of the bleached swatches were subsequently “permed” using a Reforming Lotion (10% TGA, pH 8.8, 20 minutes) and then neutralized with 2% H2O2, pH 3 (5 minutes). The bleached/permed swatches were rinsed with tap water, and soaked in an excess of deionized water for 2 hours. The swatches were air-dried and equilibrated for 48 hours prior to further treatment. The swatches that were heat treated were treated with 0.06M solutions of hexoses and pentoses for 10 min at 45° C. and then were heated for 12 cycles. The swatches were rinsed after the heat application.
In the DSC tests, finely cut hair (4-5 mg) was crimped in an aluminum pan that was punctured prior to each run. The samples were heated from 25° C. to 300° C., at a scanning rate of 20° C./min, with 5 runs per treatment. The results were averaged.
(§2) Normal blonde hair was bleached with Clairol Basic White Bleach, 40 volume H2O2, for 20 min at room temperature. One batch of normal and bleached hair swatches underwent five heat cycles at 130° C., where one treatment cycle involved the following steps (1-4):
(§3) 1. The swatches were treated with 0.06 M solutions of monosaccharides in deionized water (about 1 wt %) for 10 min at 45° C.
(§4) 2. The treated swatches were blow-dried for 1 min.
(§5) 3. The heat was applied for 1 min in the form of a flat hair iron Windmere “Solid Gold” (130° C.).
(§6) 4. The swatches were rinsed and blot-dried with a paper-towel.
(§7) The treatment solutions included four pentoses (D-xylose, D-arabinose, D-lyxose, and D-ribose, 1% each) and one hexose (1.2% D-glucose). Deionized water was used as a control treatment. After the heat experiment, the hair was rinsed in water, air-dried, and equilibrated for 24 hours in the humidity chamber at 25° C. and 50% RH prior to further testing. These swatches are referred to as treated at 130° C.
(§8) A second batch of normal and bleached hair swatches were treated in a similar way and blow-dried, without application of the hot iron. The treatment was also repeated 5 times, the swatches from the second batch are referred to as treated at 45° C.
Normal blonde hair was divided in two batches. The hair from the first batch was bleached with Clairol Basic White Bleach, 40 volume H2O2, for 20 min at room temperature and humidity. The hair from the second batch was first bleached as above, and then permed: Reforming lotion-10% Thioglycolic acid, pH 8.8, 20 min; neutralizer-2% hydrogen peroxide, 5 min. The oxidatively damaged hair was equilibrated for 24 hours prior to further testing.
(§9) Both the bleached and the bleached/permed hair were subjected to heat treatment, as in Example 2. The heat treatment experiment involved 12 heat cycles including application of sugar or control solution before each heat application, and rinsing after the heat application. Deionized water was used as a control treatment.
(§10) After the heat experiment, the hair was rinsed in water, air-dried, and equilibrated for 24 h in the humidity chamber at 25° C. and 50% RH prior to further testing. The effect of the hexoses vs. pentoses on the dry tensile strength (INSTRON) and the alpha-structure (doublet peak area, DSC) was tested on the bleached hair (Table 13). The effect of a hexose (D-glucose) vs. a pentose (D-Xylose) on wet tensile strength (DIA-STRON) was tested both on the bleached and the bleached/permed hair (Table 14). Application of 0.06M solutions of pentoses protected the bleached and the bleached/permed hair against thermal damage (α-structure; wet and dry tensile strength).

[2] = Dry tensile strength (Instron) after heat cycles
Description: as §1
Tensile strength was determined using both the Instron (50 dry fibers per tests) and the Dia-Stron (100 wet fibers per test), with the stretching rate of 100 mm/min. The following parameters were determined: Young's Modulus (N/m^2), Work to stretch 25% (J/m^2); Extension to Break (degree of elongation) (%); Work to Break (J/m^2).
as §2, §3, §4, §5, §6, §7, §8, §9, §10

[3] = DSC doublet peak area (α-structure) of hair after heat cycles; details: for Doublet Peak Area: bleached/permed hair after 12 heat cycles, 0.06 M solutions
Description: Normal blonde hair was bleached with Clairol Basic White Bleach (40 volume H2O2) for 20 min at standard room temperature and humidity. The bleached swatches were rinsed with tap water, and soaked in an excess of deionized water for 2 hours. The swatches were air-dried and equilibrated for 48 hours prior to further treatment. Some of the bleached swatches were subsequently “permed” using a Reforming Lotion (10% TGA, pH 8.8, 20 minutes) and then neutralized with 2% H2O2, pH 3 (5 minutes). The bleached/permed swatches were rinsed with tap water, and soaked in an excess of deionized water for 2 hours. The swatches were air-dried and equilibrated for 48 hours prior to further treatment. The swatches that were heat treated were treated with 0.06M solutions of hexoses and pentoses for 10 min at 45° C. and then were heated for 12 cycles. The swatches were rinsed after the heat application. In the DSC tests, finely cut hair (4-5 mg) was crimped in an aluminum pan that was punctured prior to each run. The samples were heated from 25° C. to 300° C., at a scanning rate of 20° C./min, with 5 runs per treatment. The results were averaged. Normal blonde hair was divided in two batches. The hair from the first batch was bleached with Clairol Basic White Bleach, 40 volume H2O2, for 20 min at room temperature and humidity. The hair from the second batch was first bleached as above, and then permed: Reforming lotion-10% Thioglycolic acid, pH 8.8, 20 min; neutralizer-2% hydrogen peroxide, 5 min. The oxidatively damaged hair was equilibrated for 24 hours prior to further testing. Both the bleached and the bleached/permed hair were subjected to heat treatment, as in Example 2. The heat treatment experiment involved 12 heat cycles including application of sugar or control solution before each heat application, and rinsing after the heat application. Deionized water was used as a control treatment. After the heat experiment, the hair was rinsed in water, air-dried, and equilibrated for 24 h in the humidity chamber at 25° C. and 50% RH prior to further testing. The effect of the hexoses vs. pentoses on the dry tensile strength (INSTRON) and the alpha-structure (doublet peak area, DSC) was tested on the bleached hair (Table 13). The effect of a hexose (D-glucose) vs. a pentose (D-Xylose) on wet tensile strength (DIA-STRON) was tested both on the bleached and the bleached/permed hair (Table 14). Application of 0.06M solutions of pentoses protected the bleached and the bleached/permed hair against thermal damage (α-structure; wet and dry tensile strength).

[4] = bleached hair after 12 heat cycles, 0.06 M solutions
[5] = bleached hair after 12 heat cycles, 0.06 M solutions (Table 14)
[6] = bleached hair, 5 cycles at 45° C., 0.06 M solutions
[7] = bleached hair, 5 heat cycles at 130° C., 0.06 M solutions
[8] = bleached hair after 12 heat cycles, 0.06 M solutions, n = 100 fibers
[9] = bleached hair, 5 heat cycles at 130° C., 0.06 M solutions, n = 50 fibers
[10] = dry bleached hair, 12 heat cycles, 0.06 M, INSTRON, n = 50 fibers
[11] = dry, bleached hair, 5 cycles at 45° C., 0.06 M solutions, n = 50 fibers

| SMILES | protection effect (normalized α-structure peak area), in words ([1]; bleached and bleached/permed hair, 12 heat cycles) | Doublet Peak Area [1, 4] | Doublet Peak Area [1, 5] | Doublet Peak Area [1, 6] | Doublet Peak Area [1, 7] | Normalized area ([1]; bleached hair, 12 heat cycles, 0.06 M) | Work 25% (Dry) [2, 8] | Work 25% (Dry) [2, 9] | Extension-Break [2, 10] | Work 25% [2, 10] | Work-Break [2, 10] | Young's Modulus [2, 10] | Work 25% [2, 11] | protection of dry tensile strength, in words ([2]; hair treated 5 cycles at 45° C. and at 130° C.) | Doublet Peak Area [3] | Normalized area ([3]; bleached/permed hair, 12 heat cycles, 0.06 M) |
| --- | --- | --- | --- | --- | --- | --- | --- | --- | --- | --- | --- | --- | --- | --- | --- | --- |
| O=C[C@H](O)[C@@H](O)[C@H](O)CO [D-Xylose] | protection effect was found | 9.74 +/− 2.13 J/g hair | 9.74 +/− 2.13 J/g hair | 8.41 +/− 1.33 J/g hair | 9.66 +/− 2.59 J/g hair | 9.74 +/− 2.13 J/g hair | 1,204 +/− 215 J/m^2 | 1,051 +/− 191 J/m^2 | 55.28 +/− 7.08% | 1,204 +/− 215 J/m^2 | 3,161 +/− 771 J/m^2 | 5,802 +/− 1,161 MN/m^2 | 1,182 +/− 215 J/m^2 | improved protection both at 45 °C and at 130 °C | 9.78 +/− 1.48 J/g hair | 9.78 +/− 1.48 J/g hair |
| O=C[C@H](O)[C@@H](O)[C@H](O)[C@H](O)CO [D-Glucose, reference compound] | – | 5.56 +/− 1.16 J/g hair | 5.56 +/− 1.16 J/g hair | 6.35 +/− 2.71 J/g hair | 5.37 +/− 1.22 J/g hair | – | 913.9 +/− 158.2 J/m^2 | 864.7 +/− 184.4 J/m^2 | 56.01 +/− 7.21% | 913.9 +/− 158.2 J/m^2 | 2,599 +/− 604 J/m^2 | 4,623 +/− 813 MN/m^2 | 984.6 +/− 169.6 J/m^2 | – | 4.96 +/− 0.32 J/g hair | – |
